The subject of experiment [1] is P. falciparum male gametocytes. As to the kind of experiment: P. falciparum Dual Gamete Formation Assay (PfDGFA), male readout (exflagellation). Type of experiment: cell-based, Plasmodium falciparum NF54. Conditions: for Average inhibition male (%): average of replicates; for % inhibition male (individual replicates) R1: replicate R1; for % inhibition male (individual replicates) R4: replicate R4; for % inhibition male (individual replicates) R3: replicate R3; for Activity: hit = >50% inhibition in male or female readout in at least 3 replicates, 0 = no class assigned. In outline:
(§1)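 Two sex-specific readouts come from one well: male exflagellation centres recorded by brightfield video right after activation, and female gametes scored by Cy3-anti-Pfs25 fluorescence after 24 h at 28°C.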

Experiment [2] relates to P. falciparum female gametocytes. As to the kind of experiment: P. falciparum Dual Gamete Formation Assay (PfDGFA), female readout (Pfs25-positive female gametes). The settings on record: for Average inhibition female (%): average of replicates; for % inhibition female (individual replicates) R1: replicate R1; for % inhibition female (individual replicates) R3: replicate R3; for % inhibition female (individual replicates) R4: replicate R4. Type of experiment: cell-based, Plasmodium falciparum NF54. In outline:
as §1

Where [3] appears, read: 2µM, 24h preincubation with gametocytes prior to induction of gametogenesis.
Where [4] appears, read: 2µM, 24h preincubation, number of replicates with >50% inhibition in the male readout.
[5] abbreviates: 2µM, 24h preincubation, number of replicates with >50% inhibition in the female readout.
The mark [6] stands for this setting: 2µM, 24h preincubation, hits selected on >50% inhibition in the male readout across replicates.
Setting [7] is: PfDGFA at 2µM, 24h preincubation.
The mark [8] stands for this setting: 2µM, 24h preincubation, hits selected on >50% inhibition in the female readout across replicates.
Where [9] appears, read: PfDGFA at 2µM, 24h preincubation with gametocytes.
The mark [10] stands for this setting: number of replicates with >50% inhibition in the male readout, 2µM.
Where [11] appears, read: number of replicates with >50% inhibition in the female readout, 2µM.

Results on 11 molecules are retold here after article PMC10584170, “Machine learning-based phenotypic imaging to characterise the targetable biology of Plasmodium falciparum male gametocytes for the development of transmission-blocking antimalarials” (PLOS Pathogens, 2023).

Molecules are shown by their SMILES.

`CN(C)Cc1ccc(-c2ccc(NC(=O)c3ccc4c(=O)n(Cc5ccccc5)cnc4c3)cc2)cc1` [TCMDC-132361]: in experiment [1] (setting [3]), the “Average inhibition male (%)” value is listed as 62.7%, the “% inhibition male (individual replicates) R1” value is 57.2% and the “% inhibition male (individual replicates) R4” value amounted to 53.6%. The HitlevelM in experiment [1] (setting [4]) came to 3. Moreover, in experiment [2] (setting [3]), the “Average inhibition female (%)” value is given as 36.5%, the “% inhibition female (individual replicates) R1” value is listed as 37.4%, the “% inhibition female (individual replicates) R3” value stood at 28.0% and the “% inhibition female (individual replicates) R4” value came to 35.8%. Further, in experiment [2] (setting [5]), the HitlevelF stood at 0.
For the molecule `COc1ccc(-c2cccc(CNC3CCN(C)CC3)c2)cc1S(=O)(=O)NCc1ccccc1.O=C(O)C(F)(F)F` [TCMDC-132375], in experiment [1] (setting [3]), the “Average inhibition male (%)” value was 31.3%, the “% inhibition male (individual replicates) R1” value was 25.4%, the “% inhibition male (individual replicates) R3” value came to 11.7% and the “% inhibition male (individual replicates) R4” value came to 56.9%. Besides, the HitlevelM in experiment [1] (setting [6]) turned out to be 1. In experiment [1] (setting [7]), the Activity was determined as 0. Further, in experiment [2] (setting [3]), the “Average inhibition female (%)” value was found to be 14.0%, the “% inhibition female (individual replicates) R1” value is 15.7%, the “% inhibition female (individual replicates) R3” value worked out at 4.8% and the “% inhibition female (individual replicates) R4” value was 20.5%. This molecule displayed a HitlevelF in experiment [2] (setting [8]) of 0.
With `Cc1cc(-c2cccc(CNC3CCN(C)CC3)c2)ccc1S(=O)(=O)NCc1ccccc1.O=C(O)C(F)(F)F` [TCMDC-132379], in experiment [1] (setting [3]), the “Average inhibition male (%)” value is given as 43.8%, the “% inhibition male (individual replicates) R1” value was 43.1%, the “% inhibition male (individual replicates) R3” value was found to be 25.4% and the “% inhibition male (individual replicates) R4” value amounted to 55.6%. In experiment [1] (setting [6]), the HitlevelM was found to be 2. In experiment [1] (setting [7]), this molecule had an Activity of 0. Also, in experiment [2] (setting [3]), the “Average inhibition female (%)” value worked out at 17.5%, the “% inhibition female (individual replicates) R1” value was 20.6%, the “% inhibition female (individual replicates) R3” value came out at 25.5% and the “% inhibition female (individual replicates) R4” value was -4.5%. For the same molecule, in experiment [2] (setting [8]), the HitlevelF is given as 0.
As for `COc1ccc(CNC2CCN(C)CC2)cc1-c1ccc(S(=O)(=O)NCc2ccccc2)c(C)c1.O=C(O)C(F)(F)F` [TCMDC-132480], in experiment [1] (setting [9]), the “Average inhibition male (%)” value is 78.0%, the “% inhibition male (individual replicates) R1” value is 73.4%, the “% inhibition male (individual replicates) R3” value stood at 67.7% and the “% inhibition male (individual replicates) R4” value is 91.6%. In experiment [1] (setting [10]), this molecule displayed a HitlevelM of 4. Besides, in experiment [2] (setting [9]), the “Average inhibition female (%)” value was determined as 36.3%, the “% inhibition female (individual replicates) R1” value worked out at 30.7%, the “% inhibition female (individual replicates) R3” value is recorded as 36.3% and the “% inhibition female (individual replicates) R4” value was found to be 41.6%. The same molecule returned a HitlevelF in experiment [2] (setting [11]) of 0.
Take `CCS(=O)(=O)c1ccc(-c2cnc3[nH]cc(-c4ccc(N)cc4)c3c2)cc1` [TCMDC-132582]: in experiment [1] (setting [3]), the “Average inhibition male (%)” value is 35.5%, the “% inhibition male (individual replicates) R1” value was determined as 70.7% and the “% inhibition male (individual replicates) R4” value is recorded as -32.7%. In experiment [1] (setting [4]), the HitlevelM is on record as 2. In experiment [2] (setting [3]), the “Average inhibition female (%)” value is recorded as 24.2%, the “% inhibition female (individual replicates) R1” value turned out to be 25.6%, the “% inhibition female (individual replicates) R3” value is given as 29.8% and the “% inhibition female (individual replicates) R4” value came out at 22.2%. The HitlevelF in experiment [2] (setting [5]) was determined as 0.
On to `Cc1cccc2nc(-c3ccc(-c4cccc(CNC5CCN(C)CC5)c4)s3)[nH]c12.O=C(O)C(F)(F)F` [TCMDC-132736], for which, in experiment [1] (setting [3]), the “Average inhibition male (%)” value was 63.8%, the “% inhibition male (individual replicates) R1” value is reported as 48.5% and the “% inhibition male (individual replicates) R4” value is 67.2%. In experiment [1] (setting [6]), this molecule registered a HitlevelM of 2. In experiment [1] (setting [7]), this molecule gave an Activity of 0. For the same molecule, in experiment [2] (setting [3]), the “Average inhibition female (%)” value was determined as 18.0%, the “% inhibition female (individual replicates) R1” value is on record as 17.1%, the “% inhibition female (individual replicates) R3” value came to 23.2% and the “% inhibition female (individual replicates) R4” value stood at 22.3%. This molecule came in with a HitlevelF in experiment [2] (setting [8]) of 0.
In the case of `CN(CCN)Cc1ccc(-c2ccc(-c3nc4cc(C(F)(F)F)ccc4[nH]3)s2)cc1.O=C(O)C(F)(F)F` [TCMDC-132821], in experiment [1] (setting [3]), the “Average inhibition male (%)” value was -7.8%, the “% inhibition male (individual replicates) R1” value is reported as -14.8% and the “% inhibition male (individual replicates) R4” value is -7.6%. Besides, the HitlevelM in experiment [1] (setting [6]) is 0. In experiment [1] (setting [7]), this molecule yielded an Activity of 0. For the same molecule, in experiment [2] (setting [3]), the “Average inhibition female (%)” value was determined as 8.7%, the “% inhibition female (individual replicates) R1” value is 4.7%, the “% inhibition female (individual replicates) R3” value is given as 20.4% and the “% inhibition female (individual replicates) R4” value is on record as 7.1%. In experiment [2] (setting [8]), this molecule gave a HitlevelF of 0.
With `CNCCNCc1ccc(-c2ccc(-c3nc4cc(F)ccc4[nH]3)s2)cc1.O=C(O)C(F)(F)F` [TCMDC-132829], in experiment [1] (setting [9]), the “Average inhibition male (%)” value came out at 66.0%, the “% inhibition male (individual replicates) R1” value is listed as 54.3% and the “% inhibition male (individual replicates) R4” value was found to be 78.8%. This molecule also displayed a HitlevelM in experiment [1] (setting [10]) of 3. In experiment [2] (setting [9]), the “Average inhibition female (%)” value amounted to 12.3%, the “% inhibition female (individual replicates) R1” value amounted to 11.4%, the “% inhibition female (individual replicates) R3” value is 10.0% and the “% inhibition female (individual replicates) R4” value is recorded as 9.0%. The molecule further came in with a HitlevelF in experiment [2] (setting [11]) of 0.
Regarding `CNCCNCc1cccc(-c2ccc(-c3nc4cc(C(F)(F)F)ccc4[nH]3)s2)c1.O=C(O)C(F)(F)F` [TCMDC-132830], in experiment [1] (setting [3]), the “Average inhibition male (%)” value was determined as 36.6%, the “% inhibition male (individual replicates) R1” value is on record as 35.0%, the “% inhibition male (individual replicates) R3” value was 16.5% and the “% inhibition male (individual replicates) R4” value is 60.2%. Further, in experiment [1] (setting [4]), the HitlevelM amounted to 1. Besides, in experiment [2] (setting [3]), the “Average inhibition female (%)” value came to 26.5%, the “% inhibition female (individual replicates) R1” value amounted to 19.8%, the “% inhibition female (individual replicates) R3” value is 8.2% and the “% inhibition female (individual replicates) R4” value amounted to 49.8%. Also, the HitlevelF in experiment [2] (setting [5]) was 0.
For the molecule `CNCCNCc1ccc(-c2ccc(-c3nc4cc(C(F)(F)F)ccc4[nH]3)cc2)cc1.O=C(O)C(F)(F)F` [TCMDC-132833], in experiment [1] (setting [3]), the “Average inhibition male (%)” value came to 23.6%, the “% inhibition male (individual replicates) R1” value is on record as 9.5%, the “% inhibition male (individual replicates) R3” value is listed as 12.3% and the “% inhibition male (individual replicates) R4” value was found to be 50.2%. This molecule returned a HitlevelM in experiment [1] (setting [6]) of 1. In experiment [1] (setting [7]), this molecule yielded an Activity of 0. Also, in experiment [2] (setting [3]), the “Average inhibition female (%)” value came to 17.0%, the “% inhibition female (individual replicates) R1” value came to 21.1%, the “% inhibition female (individual replicates) R3” value is listed as 25.6% and the “% inhibition female (individual replicates) R4” value was 19.1%. The molecule further showed a HitlevelF in experiment [2] (setting [8]) of 0.
For the molecule `CNCCNCc1cccc(-c2ccc(-c3nc4cc(C(F)(F)F)ccc4[nH]3)cc2)c1.O=C(O)C(F)(F)F` [TCMDC-132834], in experiment [1] (setting [3]), the “Average inhibition male (%)” value is on record as 47.7%, the “% inhibition male (individual replicates) R1” value came out at 40.3%, the “% inhibition male (individual replicates) R3” value stood at 3.4% and the “% inhibition male (individual replicates) R4” value is listed as 68.9%. The HitlevelM in experiment [1] (setting [6]) turned out to be 2. The molecule further came in with an Activity in experiment [1] (setting [7]) of 0. Further, in experiment [2] (setting [3]), the “Average inhibition female (%)” value amounted to 13.1%, the “% inhibition female (individual replicates) R1” value was 23.3%, the “% inhibition female (individual replicates) R3” value is 8.2% and the “% inhibition female (individual replicates) R4” value is 10.1%. Besides, in experiment [2] (setting [8]), the HitlevelF is reported as 0.
